Starred links: 1 amine or outer side, 2 acyl side, 3 side chain; linkers in the order of their positions; H or OH if unused. Positions of bridges follow the written chain, without caps; N, C: chain ends. Non-standard residues stand in square brackets, D forms with d. Residues, ends and D or L forms follow the SMILES beside them. *: point of attachment. NMeF = CN[C@@H](Cc1ccccc1)C(=O)O; NMeGABA = CN(CCCC(=O)[*:2])[*:1]; NMeβAla = CN(CCC(=O)[*:2])[*:1]; NMeL = CN[C@@H](CC(C)C)C(=O)O; NMeV = CN[C@H](C(=O)O)C(C)C; NMeA = CN[C@@H](C)C(=O)O; Piperidide = C1CCN(*)CC1; dNMeA = CN[C@H](C)C(=O)O; Sar = CNCC(=O)O
Tests used:
[1] = PAMPA (parallel artificial membrane permeability assay); assay type: in vitro ADME; settings: PAMPA; membrane permeation rate (Pe); 50 mM MOPSO buffer pH 6.5 with 5.0% glycocholic acid, 37° C., 18 hours; read-out: iPAMPA Pe
Procedure, shortened: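 Artificial membrane was 10% (w/v) egg lecithin plus 0.5% (w/v) cholesterol in dodecane on a PVDF filter. A 10 mM DMSO stock was added at 0.5% (v/v) to donor buffer (50 mM MOPSO, pH 6.5, 5.0% glycocholic acid). After 18 h at 37 °C, LC/MS or LC/UV gave donor and acceptor levels for Pe.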

[2] = Metabolic stability in human hepatic microsome; assay type: in vitro ADME; settings: microsomes, pH 7.4; human hepatic microsome, NADPH(+); read-out: CL NADPH(+)

Compound | Papp at 18 hours, 50 µM [1] [×10⁻⁶ cm/s] | microsomal CLint at 1 uM [2] [µL/min/mg]
CC(C)C[C@H]1C(=O)N(C)[C@@H](C)C(=O)N[C@@H]([C@@H](C)O)C(=O)N(C)[C@@H](C)C(=O)N(C)[C@@H](Cc2ccccc2)C(=O)N(C)CC(=O)N[C@H](C(=O)N(C)[C@@H](Cc2ccccc2)C(=O)N[C@@H](C)C(=O)N2CCCCC2)CC(=O)N(C)[C@@H](C)C(=O)N(C)[C@@H](C)C(=O)N[C@@H](C)C(=O)N[C@@H](Cc2ccccc2)C(=O)N1C [DP-345] ([NMeA][NMeA]AF[NMeL][NMeA]T[NMeA][NMeF][Sar]D[NMeF]A-Piperidide; lactam N-11) | 2.8 | 7
CC(C)C[C@H]1C(=O)N(C)[C@@H](C)C(=O)N(C)[C@@H](Cc2ccccc2)C(=O)N[C@@H]([C@@H](C)O)C(=O)N(C)[C@@H](C)C(=O)N(C)[C@@H](Cc2ccccc2)C(=O)N(C)[C@@H](C)C(=O)N[C@H](C(=O)N(C)[C@@H](Cc2ccccc2)C(=O)N[C@@H](C)C(=O)N2CCCCC2)CC(=O)N(C)CCC(=O)N(C)[C@@H](C)C(=O)N[C@@H](C)C(=O)N1C [DP-346] ([NMeβAla][NMeA]A[NMeL][NMeA][NMeF]T[NMeA][NMeF][NMeA]D[NMeF]A-Piperidide; lactam N-11) | 4 | 7
CC(C)C[C@H]1C(=O)N[C@@H](C)C(=O)N(C)[C@@H](Cc2ccccc2)C(=O)N(C)[C@@H](C)C(=O)N(C)[C@@H](Cc2ccccc2)C(=O)N[C@H](C(=O)N(C)[C@@H](Cc2ccccc2)C(=O)N[C@@H](C)C(=O)N2CCCCC2)CC(=O)N(C)[C@H](C)C(=O)N(C)[C@@H](C)C(=O)N(C)[C@@H](CC(C)C)C(=O)N[C@@H]([C@@H](C)O)C(=O)N(C)[C@@H](C)C(=O)N1C [DP-347] ([dNMeA][NMeA][NMeL]T[NMeA][NMeL]A[NMeF][NMeA][NMeF]D[NMeF]A-Piperidide; lactam N-11) | 25 | 40
CC(C)C[C@H]1C(=O)N(C)[C@@H](Cc2ccccc2)C(=O)N[C@@H]([C@@H](C)O)C(=O)N(C)[C@@H](C)C(=O)N[C@@H](C)C(=O)N(C)[C@@H](Cc2ccccc2)C(=O)N[C@@H](C)C(=O)N(C)[C@@H](C(C)C)C(=O)N(C)[C@@H](C)C(=O)N[C@H](C(=O)N(C)[C@@H](Cc2ccccc2)C(=O)N[C@@H](C)C(=O)N2CCCCC2)CC(=O)N(C)[C@H](C)C(=O)N1C [DP-348] ([dNMeA][NMeL][NMeF]T[NMeA]A[NMeF]A[NMeV][NMeA]D[NMeF]A-Piperidide; lactam N-11) | 19 | 17
CC(C)C[C@H]1C(=O)N[C@H](C(=O)N(C)[C@@H](Cc2ccccc2)C(=O)N[C@@H](C)C(=O)N2CCCCC2)CC(=O)N(C)[C@@H](C)C(=O)N(C)[C@@H](C)C(=O)N[C@@H](C(C)C)C(=O)N(C)[C@@H](C)C(=O)N(C)[C@@H](Cc2ccccc2)C(=O)N[C@@H]([C@@H](C)O)C(=O)N(C)CC(=O)N(C)[C@@H](C)C(=O)N1C [DP-349] ([NMeA][NMeA]V[NMeA][NMeF]T[Sar][NMeA][NMeL]D[NMeF]A-Piperidide; lactam N-10) | 3.9 | 13
CC(C)C[C@@H]1NC(=O)[C@H](CC(C)C)N(C)C(=O)[C@H](C)N(C)C(=O)C[C@@H](C(=O)N(C)[C@@H](Cc2ccccc2)C(=O)N[C@@H](C)C(=O)N2CCCCC2)NC(=O)[C@H](CC(C)C)N(C)C(=O)[C@H](Cc2ccccc2)NC(=O)[C@H](Cc2ccccc2)N(C)C(=O)[C@H](C)NC(=O)[C@H]([C@@H](C)O)NC(=O)[C@H](CC(C)C)N(C)C1=O [DP-350] ([NMeA][NMeL]L[NMeL]TA[NMeF]F[NMeL]D[NMeF]A-Piperidide; lactam N-10) | 2 | 29
CC(C)C[C@@H]1NC(=O)[C@H]([C@@H](C)O)NC(=O)[C@H](CC(C)C)N(C)C(=O)[C@H](C)N(C)C(=O)[C@H](Cc2ccccc2)N(C)C(=O)[C@H](Cc2ccccc2)NC(=O)[C@H](CC(C)C)N(C)C(=O)CCN(C)C(=O)C[C@@H](C(=O)N(C)[C@@H](Cc2ccccc2)C(=O)N[C@@H](C)C(=O)N2CCCCC2)NC(=O)[C@H](CC(C)C)N(C)C1=O [DP-351] ([NMeβAla][NMeL]F[NMeF][NMeA][NMeL]TL[NMeL]D[NMeF]A-Piperidide; lactam N-10) | 63 | 51
CC(C)C[C@H]1C(=O)N[C@@H](Cc2ccccc2)C(=O)N(C)[C@@H](C(C)C)C(=O)N[C@@H]([C@@H](C)O)C(=O)N(C)[C@@H](C)C(=O)NCC(=O)N(C)[C@@H](Cc2ccccc2)C(=O)N[C@H](C(=O)N(C)[C@@H](Cc2ccccc2)C(=O)N[C@@H](C)C(=O)N2CCCCC2)CC(=O)N(C)CCC(=O)N[C@@H](C(C)C)C(=O)N1C [DP-352] ([NMeβAla]V[NMeL]F[NMeV]T[NMeA]G[NMeF]D[NMeF]A-Piperidide; lactam N-10) | 25 | 66
CC(C)C[C@H]1C(=O)N[C@@H]([C@@H](C)O)C(=O)N(C)[C@@H](C)C(=O)N[C@H](C(=O)N(C)[C@@H](Cc2ccccc2)C(=O)N[C@@H](C)C(=O)N2CCCCC2)CC(=O)N(C)[C@H](C)C(=O)N(C)[C@@H](Cc2ccccc2)C(=O)N(C)[C@@H](C)C(=O)N[C@@H](C)C(=O)N(C)[C@@H](C)C(=O)N(C)[C@@H](Cc2ccccc2)C(=O)N1C [DP-353] ([dNMeA][NMeF][NMeA]A[NMeA][NMeF][NMeL]T[NMeA]D[NMeF]A-Piperidide; lactam N-10) | 16 | 13
CC(C)C[C@H]1C(=O)N[C@@H](C)C(=O)N(C)[C@@H](C)C(=O)N[C@H](C(=O)N(C)[C@@H](Cc2ccccc2)C(=O)N[C@@H](C)C(=O)N2CCCCC2)CC(=O)N(C)[C@H](C)C(=O)N(C)[C@@H](C(C)C)C(=O)N(C)[C@@H](C)C(=O)N[C@@H](Cc2ccccc2)C(=O)N[C@@H]([C@@H](C)O)C(=O)N(C)[C@@H](C)C(=O)N1C [DP-354] ([dNMeA][NMeV][NMeA]FT[NMeA][NMeL]A[NMeA]D[NMeF]A-Piperidide; lactam N-10) | 3.3 | 8
CC(C)C[C@H]1C(=O)N[C@@H](Cc2ccccc2)C(=O)N[C@@H]([C@@H](C)O)C(=O)N(C)[C@@H](C)C(=O)N(C)[C@@H](Cc2ccccc2)C(=O)N(C)[C@@H](C(C)C)C(=O)NCC(=O)N[C@H](C(=O)N(C)[C@@H](Cc2ccccc2)C(=O)N[C@@H](C)C(=O)N2CCCCC2)CC(=O)N(C)[C@H](C)C(=O)N[C@@H](C)C(=O)N1C [DP-355] ([dNMeA]A[NMeL]FT[NMeA][NMeF][NMeV]GD[NMeF]A-Piperidide; lactam N-10) | 17 | 66
CC(C)C[C@H]1C(=O)N[C@@H]([C@@H](C)O)C(=O)NCC(=O)N[C@@H](C(C)C)C(=O)N[C@H](C(=O)N(C)[C@@H](Cc2ccccc2)C(=O)N[C@@H](C)C(=O)N2CCCCC2)CC(=O)N(C)[C@H](C)C(=O)N(C)[C@@H](C(C)C)C(=O)N[C@@H](Cc2ccccc2)C(=O)N(C)[C@@H](Cc2ccccc2)C(=O)N(C)[C@@H](C)C(=O)N1C [DP-356] ([dNMeA][NMeV]F[NMeF][NMeA][NMeL]TGVD[NMeF]A-Piperidide; lactam N-10) | 34 | 66
CC(C)C[C@H]1C(=O)N(C)[C@@H](C)C(=O)N[C@H](C(=O)N(C)[C@@H](Cc2ccccc2)C(=O)N[C@@H](C)C(=O)N2CCCCC2)CC(=O)N(C)[C@@H](C)C(=O)N(C)[C@@H](Cc2ccccc2)C(=O)N(C)[C@@H](C)C(=O)N[C@@H]([C@@H](C)O)C(=O)N(C)[C@@H](C)C(=O)N[C@@H](C(C)C)C(=O)N1C [DP-357] ([NMeA][NMeF][NMeA]T[NMeA]V[NMeL][NMeA]D[NMeF]A-Piperidide; lactam N-9) | 14 | 56
CC(C)C[C@H]1C(=O)N[C@@H]([C@@H](C)O)C(=O)N(C)[C@@H](C)C(=O)N(C)[C@@H](CC(C)C)C(=O)N[C@H](C(=O)N(C)[C@@H](Cc2ccccc2)C(=O)N[C@@H](C)C(=O)N2CCCCC2)CC(=O)N(C)CCC(=O)N(C)[C@@H](Cc2ccccc2)C(=O)N(C)[C@@H](C(C)C)C(=O)N[C@@H](C(C)C)C(=O)N1C [DP-358] ([NMeβAla][NMeF][NMeV]V[NMeL]T[NMeA][NMeL]D[NMeF]A-Piperidide; lactam N-9) | 32 | 82
CC(C)C[C@H]1C(=O)N(C)[C@@H](C)C(=O)N[C@@H]([C@@H](C)O)C(=O)N(C)[C@@H](C)C(=O)N(C)[C@@H](Cc2ccccc2)C(=O)N[C@@H](Cc2ccccc2)C(=O)N[C@H](C(=O)N(C)[C@@H](Cc2ccccc2)C(=O)N[C@@H](C)C(=O)N2CCCCC2)CC(=O)N(C)CCC(=O)N(C)[C@@H](C)C(=O)N[C@@H](C)C(=O)N(C)CC(=O)N1C [DP-361] ([NMeβAla][NMeA]A[Sar][NMeL][NMeA]T[NMeA][NMeF]FD[NMeF]A-Piperidide; lactam N-11) | 1.5 | 9
CC(C)C[C@H]1C(=O)N[C@@H](Cc2ccccc2)C(=O)N(C)[C@@H](C)C(=O)N(C)[C@@H](C)C(=O)N[C@@H]([C@@H](C)O)C(=O)N(C)CC(=O)N(C)[C@@H](Cc2ccccc2)C(=O)N[C@H](C(=O)N(C)[C@@H](Cc2ccccc2)C(=O)N[C@@H](C)C(=O)N2CCCCC2)CC(=O)N(C)[C@H](C)C(=O)N(C)[C@@H](C)C(=O)N[C@@H](C)C(=O)N1C [DP-363] ([dNMeA][NMeA]A[NMeL]F[NMeA][NMeA]T[Sar][NMeF]D[NMeF]A-Piperidide; lactam N-11) | 5 | 15
CC[C@H](C)[C@@H]1NC(=O)[C@@H]2CCCN2C(=O)[C@H](CC(C)C)N(C)C(=O)[C@H](Cc2ccccc2)NC(=O)CCCN(C)C(=O)C[C@@H](C(=O)N(C)[C@@H](Cc2ccccc2)C(=O)N[C@@H](C)C(=O)N2CCCCC2)NC(=O)[C@H]([C@@H](C)O)NC(=O)[C@H](CC(C)C)NC(=O)[C@H](Cc2ccccc2)N(C)C(=O)CNC(=O)[C@H](CC(C)C)N(C)C1=O [DP-364] ([NMeGABA]F[NMeL]PI[NMeL]G[NMeF]LTD[NMeF]A-Piperidide; lactam N-11) | 28 | 75
